Assay results taken from patent US12364706B2, “Modified aminoglycoside compounds and uses thereof in disabling bacterial ribosome” (Technion Research & Development Foundation Limited, priority 2018, dated 2025).

What was measured:
[1] = test system: E. coli S30 extract for circular DNA with the pBESTluc plasmid; assay: Prokaryotic in vitro translation inhibition, coupled transcription/translation assay; type: biochemical; conditions: for IC50: prokaryotic system, 37° C., 60 minutes, read-out: IC50 values, protein translation inhibition (half-maximum inhibition levels); for inhibitory potency of protein translation compared with NeoB: relative to NeoB
Procedure: Prokaryotic in vitro translation inhibition by the different standard and synthetic aminoglycosides was quantified in coupled transcription/translation assays by use of E. coli S30 extract for circular DNA with the pBESTluc plasmid (Promega), according to the manufacturer's protocol.
Translation reactions ([…]) containing variable concentrations of the tested aminoglycoside were incubated at 37° C. for 60 minutes, cooled on ice for 5 minutes, and diluted with a dilution reagent [Tris-phosphate buffer (25 mm, pH 7.8), dithiothreitol (DTT, 2 mm), 1,2-diaminocyclohexanetetraacetate (2 mm), glycerol (10%), triton X100 (1%), and bovine serum albumin (BSA, 1 mg/mL] into 96-well plates.
The luminescence was measured immediately after the addition of Luciferase Assay Reagent (Promega) ([…]), and light emission was recorded with a Victor3 Plate Reader (PerkinElmer).
The concentration of half-maximal inhibition (IC^50) was obtained from fitting concentration-response curves to the data of at least three independent experiments by using Grafit 5 software.

[2] = test system: Geobacillus T1 harboring the resistance to kanamycin; assay: Antibacterial activity against kanamycin-resistant Geobacillus T1; type: cell-based
Procedure: (§1) Comparative antibacterial activities were determined by measuring the MIC values by using the double-microdilution method according to the National Committee for Clinical Laboratory Standards (NCCLS).
(§2) All the experiments were performed in triplicate, and analogous results were obtained in three different experiments.

E. coli ribosomes = assay: rRNA cleavage experiments with full-size E. coli ribosomes (gel electrophoresis); type: biochemical
[3] = test system: adenylyl(3′-5′)-adenosine (ApA); conditions: relative to 1,3-propanediamine; cited from earlier work
[4] = test system: Gram-positive pathogenic MRSA strains; assay: Antibacterial activity (MIC, double-microdilution) against MRSA strains; type: cell-based; conditions: relative to NeoB
Procedure: as §1, §2
The resistant strains included MRSA, a Gram-positive bacterium, the treatment of which represents a great challenge in the clinic; MRSA 252, which is known for its high resistance to aminoglycosides [M. T. G. Holden, E. J. Feil, J. A. Lindsay, S. J. Peacock, N. P. J. Day, M. C. Enright, T. J. Foster, C. E. Moore, L. Hurst, R. Atkin, et al., Proc. Natl. Acad. Sci. USA 2004, 101, 9786-9791]; and MRSA CI 15877, which is resistant to natural aminoglycosides [G. Kaneti, H. Sarig, I. Marjieh, Z. Fadia, A. Mor, FASEB J. 2013, 27, 4834-4843].

[5] = test system: WT and aminoglycoside-resistant strains, including Gram-negative and Gram-positive bacteria; assay: Antibacterial activity (MIC) against WT and aminoglycoside-resistant strains; type: cell-based
Procedure: as §1, §2
The minimal inhibitory concentration (MIC) values of the newly designed exemplary Compounds 1-10 were determined against wild-type (WT) Gram-negative and Gram-positive bacteria.
The bacterial strains that were included in these tests were as follows:
Two wild-type (WT) E. coli strains (R477-100 and 25922) as representatives of Gram-negative bacteria with unknown resistance to aminoglycosides [V. Pokrovskaya, V. Belakhov, M. Hainrichson, S. Yaron, T. Baasov, J. Med. Chem. 2009, 52, 2243-2254] and two WT Staphylococcus epidermidis and Bacillus subtilis strains as representatives of Gram-positive bacteria (the clinically used aminoglycosides have significant antibacterial activity against these strains) [J. Kondo, M. Hainrichson, I. Nudelman, D. Shallom-Shezifi, C. M. C. M. Barbieri, D. S. D. S. Pilch, E. Westhof, T. Baasov, ChemBioChem 2007, 8, 1700-1709]. […]

NCCNCC(=O)N[C@H]1[C@H](O)[C@@H](N)[C@@H](O[C@H]2[C@H](O[C@@H]3O[C@H](CO)[C@@H](O[C@H]4O[C@@H](CN)[C@@H](O)[C@H](O)[C@H]4N)[C@H]3O)[C@@H](O)[C@H](N)C[C@@H]2N)O[C@@H]1CN [Compound 6, 4′-(2-(aminoethylamino)acetamido)-4′-deoxy-neomycin]
IC50 [1]: 6 nM
inhibitory potency of protein translation compared with NeoB [1]: two-fold higher than that of NeoB

NCCNCCNCC(=O)NC[C@H]1O[C@H](O[C@H]2[C@H](O[C@@H]3O[C@H](CO)[C@@H](O[C@H]4O[C@@H](CN)[C@@H](O)[C@H](O)[C@H]4N)[C@H]3O)[C@@H](O)[C@H](N)C[C@@H]2N)[C@H](N)[C@@H](O)[C@@H]1N [Compound 10, 4′-amino-6′-[2-(2-(2-aminoethylamino)ethylamino)acetamido]-4′-deoxy-neomycin]
IC50 [1]: 6 nM
inhibitory potency of protein translation compared with NeoB [1]: two-fold higher than that of NeoB

NC[C@@H]1O[C@H](O[C@H]2[C@@H](O)[C@H](O[C@@H]3[C@@H](O)[C@H](N)C[C@H](N)[C@H]3O[C@H]3O[C@H](CN)[C@@H](O)[C@H](O)[C@H]3N)O[C@@H]2CO)[C@H](N)[C@@H](O)[C@@H]1O [NeoB, Neomycin B]
IC50 [1]: 10 nM
antibacterial activity [2]: almost lost its activity
cleavage of rRNA in full ribosomes (E. coli ribosomes; concentrations up to 400 mM, 24 hours, 37° C., pH 7.0): did not show any signs of the cleaved product
hydrolysis of ApA, faster than 1,3-propanediamine [3]: 3 fold

4′-O-(2-aminoethylamino)ethyl-neomycin [Compound 2]
MIC values, times lower than that of NeoB [4]: 64 times

4′-O-(2-aminoethylamino)ethyl-paromamine [Compound 1]
antibacterial activity [5]: substantially lower than that of the other compounds tested

NCCN [ethylenediamine]
cleavage of rRNA in full ribosomes (E. coli ribosomes; pH 7): did not cleave the full ribosome

CNCCNCCO[C@H]1[C@H](O)[C@@H](N)[C@@H](O[C@H]2[C@H](O[C@@H]3O[C@H](CO)[C@@H](O[C@H]4O[C@@H](CN)[C@@H](O)[C@H](O)[C@H]4N)[C@H]3O)[C@@H](O)[C@H](N)C[C@@H]2N)O[C@@H]1CN [Compound 3, 4′-O-(2-(methylamino)ethylamino)ethyl-neomycin]
cleavage of rRNA in full ribosomes (E. coli ribosomes; pH 7): did not show any signs of the cleaved product

NCCNCCNCC(=O)NC1C(CN)OC(OC2C(N)CC(N)C(O)C2OC2OC(CO)C(OC3OC(CN)C(O)C(O)C3N)C2O)C(N)C1O (stereo not drawn) [Compound 8, 4′-[2-(2-(2-aminoethylamino)ethylamino)acetamido]-4′-deoxy-neomycin]
MIC values, times lower than that of NeoB [4]: 64 times

NCCNCC(=O)NC[C@H]1O[C@H](O[C@H]2[C@H](O[C@@H]3O[C@H](CO)[C@@H](O[C@H]4O[C@@H](CN)[C@@H](O)[C@H](O)[C@H]4N)[C@H]3O)[C@@H](O)[C@H](N)C[C@@H]2N)[C@H](N)[C@@H](O)[C@@H]1N [Compound 9, 4′-amino-6′-(2-(aminoethylamino)acetamido)-4′-deoxy-neomycin]
IC50 [1]: 5 nM
inhibitory potency of protein translation compared with NeoB [1]: two-fold higher than that of NeoB
